Data on eight molecules can be found in ChEMBL document CHEMBL1275545, “Carbapenem-resistant Acinetobacter baumannii isolates expressing the blaOXA-23 gene associated with ISAba4 in Belgium” (2008).

≈ marks a conversion by molar mass, not a printed value. Where only a bound is given, the exact number is not on record here.

In this assay the test system is Acinetobacter baumannii. Briefly: Antibacterial activity against Acinetobacter baumannii GIL1 isolate harboring intrinsic blaOXA-51/69-like gene by Etest method. The assay is classed as functional.

`NCC[C@H](O)C(=O)N[C@@H]1C[C@H](N)[C@@H](O[C@H]2O[C@H](CN)[C@@H](O)[C@H](O)[C@H]2O)[C@H](O)[C@H]1O[C@H]1O[C@H](CO)[C@@H](O)[C@H](N)[C@H]1O` [AMIKACIN] came in with an MIC of over 256 µg/mL.

`O=C(O)c1cn(C2CC2)c2cc(N3CCNCC3)c(F)cc2c1=O` [CIPROFLOXACIN]: the MIC is over 32 µg/mL. `C[C@@H](O)[C@H]1C(=O)N2C(C(=O)O)=C(SCCNC=N)C[C@H]12` [IMIPENEM ANHYDROUS] yielded an MIC of over 32 µg/mL. Consider `C[C@@H](O)[C@H]1C(=O)N2C(C(=O)O)=C(S[C@@H]3CN[C@H](C(=O)N(C)C)C3)[C@H](C)[C@H]12` [MEROPENEM], for which the MIC is over 32 µg/mL. Molecule `CO[C@H]1/C=C/O[C@@]2(C)Oc3c(C)c(O)c4c(O)c(c(/C=N/N5CCN(C)CC5)c(O)c4c3C2=O)NC(=O)/C(C)=C\C=C\[C@H](C)[C@H](O)[C@@H](C)[C@@H](O)[C@@H](C)[C@H](OC(C)=O)[C@@H]1C` [RIFAMPIN] had an MIC of 3 µg/mL (≈ 3.65 µM). Consider `CC1(C)[C@H](C(=O)O)N2C(=O)C[C@H]2S1(=O)=O` [SULBACTAM], for which the MIC came to 48 µg/mL (≈ 206 µM). The same measure for `CN(C)c1cc(NC(=O)CNC(C)(C)C)c(O)c2c1C[C@H]1C[C@H]3[C@H](N(C)C)C(O)=C(C(N)=O)C(=O)[C@@]3(O)C(O)=C1C2=O` [TIGECYCLINE]: 6 µg/mL (≈ 10.2 µM). Consider COLISTIN, for which it took 0.5 µg/mL to inhibit growth (MIC).
